Results: PubChem BioAssay AID179 (DTP/NCI, 2004)
Activity calls are given as the source filed them.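 Rule for the calls: active = compounds giving half or more protection of infected cells from virus-caused growth loss, again on retest; inactive = the rest.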

Test system: CEM cells HIV-1 protection, formazan growth assay
Experiment: NCI AIDS Antiviral Assay
Conditions: for IC50: measured here: growth of uninfected CEM cells
Method in brief: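 Screen of anti-HIV-1 activity in human CEM cells using a formazan-based growth measurement at five drug concentrations. Hits with 50% or greater protection were repeated, and confirmation required reproducible complete protection.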

SMILES | outcome | EC50 [µM] | IC50 [µM]
CCOC(=O)/C=C/CC(C)n1cc(C)c(=O)[nH]c1=O (stereo unspecified) | inactive | – | –
Nc1nc2c(c(=O)[nH]1)N1CN(c3ccc(C(=O)NC(CCC(=O)O)C(=O)O)cc3)CCC1CN2 (stereo unspecified) | – | > 347 | 60.3
C/C=C(\C)C(=O)O[C@@H]1CC(C)(C)CC2C3=CCC4[C@]56CC[C@](O)(OC5)C(C)(C)C6CC[C@@]4(C)C3(C)CC[C@]21C(=O)O (stereo partly specified) | – | > 200 | 18.2
CCOC(=O)/C(C#N)=C1/Sc2c(ncn(/N=C/c3ccc(OC)cc3)c2=O)N1c1ccccc1 | – | > 7.94 | > 7.94
CC(=O)n1[nH]c(=O)n(-c2ccc(Cl)cc2)c1=O | – | > 200 | > 200
CC(=O)OC1(Sc2ccccc2)CC2[C@H]3COC(C)(C)O[C@H]3CC[C@@]2(C)CC1=O (stereo partly specified) | inactive | – | –
CN(CCO)c1nc2c(c(=O)[nH]1)CCC2 | – | > 240 | > 240
CCCCCCC(C)c1ccc2c(c1)C(=O)c1nc3ccncc3c(=O)n1-2 (stereo unspecified) | – | > 200 | 0.955
C=CCCCC(C#N)(c1ccccc1)N(C)C (stereo unspecified) | inactive | – | –
Cn1c(=O)c2[nH]c(SSc3nc4c([nH]3)c(=O)n(C)c(=O)n4C)nc2n(C)c1=O | – | 35.5 | 162
Nc1ccc(N=Nc2ccccc2)c(N)n1 | – | > 200 | 32.4
CC(=O)OC1=c2ccccc2=C(O)C2C1C=NN2C(C)=O (stereo unspecified) | – | > 200 | 87.1
